One data set relates to BeWo cells. The experiment in a line: In vitro placental transport study (BeWo b30 transwell). The procedure: BeWo cells (passages 28–31) were cultured in DMEM with […] and supplemented with 10% (v/v) heat-inactivated FCS, 2 mM L-glutamine, 10,000 U/ml penicillin and 10 mg/ml streptomycin and maintained in polystyrene cell culture flasks (Corning, Amsterdam, the Netherlands) in a 5% CO2-humidified atmosphere at 37 °C. Cells were harvested after exposure to a trypsin–EDTA solution. Next, the cells were seeded onto Transwell® inserts (0.4-µm pored polycarbonate membrane, 12 mm diameter), with a density of 10^5 cells/cm^2. Cell culture medium (0.5 and 1.5 ml in the apical and basolateral compartment, respectively) was changed daily.
Transport experiments were performed 6 days post-seeding. The transport buffer consisted of HBSS with 30 mg/ml bovine serum albumin (apical compartment) and 10 mg/ml bovine serum albumin (basolateral compartment) representing mid- and late gestational maternal and embryonic/foetal rat plasma albumin levels, respectively (Honda et al. [2008]; Mcmullin et al. [2008]; Yeoh and Morgan [1974]). The transport experiments were performed for the same compounds and according to the same method as described for the Caco-2 transport experiments, except that only cell layers with a TEER value >190 Ω cm^2 were used for the transport experiments. The BeWo transport studies encompassed four independently performed experiments including two replicates in each assay. Samples were analysed by UPLC–PDA (see “Quantification of analytes” section) for the presence of the test compound and possible metabolites. The apparent permeability coefficients were calculated using the same method as described for the Caco-2 transport experiments.

The subject of the next data set is rat liver microsomes. The experiment in a line: Glucuronidation of phenols by rat liver microsomes. The conditions noted are these: for Vmax(app) glucuronidation (± SD): rat liver microsomes, 10 mM UDPGA, alamethicin activated. As to the method: The formation of glucuronide metabolites of the p-substituted phenols was investigated in incubations with rat liver microsomes. […] To obtain maximum glucuronidation activity, the microsomes were activated by preincubating the incubation mixture with 0.025 mg/ml alamethicin added from a 200 times concentrated stock solution in methanol, during 15 min on ice (Fisher et al. [2000]). Subsequently, the incubations were started after a 1-min preincubation at 37 °C by addition of the substrate from a 200 times concentrated stock solution in DMSO and incubated in a shaking water bath at 37 °C for 45 min. The reactions were terminated by addition of ice-cold acetonitrile (20% v/v). In the blank incubation mixtures, UDPGA was omitted. Samples were analysed by UPLC–PDA (see “Quantification of analytes” section). No reference standards of the glucuronide metabolites were commercially available. […] At first, retention times from the UPLC–PDA chromatograms of the parent compound of the blank incubation were compared with the retention times of newly appearing peaks in chromatograms of the incubation mixtures, as the glucuronide conjugates are expected to elute earlier compared with their parent compounds due do their increased hydrophilicity. […] For this purpose, a volume of 10 µl of the incubation mixture of the glucuronidation assay (that was not terminated by the addition of ice-cold acetonitrile) was added to 90 µl of 200 mM potassium phosphate (pH 6.2). Then, 4 µl of glucuronidase (200 units/ml) was added, and the mixtures were incubated for 60 min in a shaking water bath at 37 °C. The reactions were terminated by addition of ice-cold acetonitrile (20% v/v) and were put on ice. Control samples were treated under the same conditions, but without glucuronidase.
The conditions of the incubation assays were optimised to obtain linear reaction rates with respect to incubation time and protein concentration and non-limiting cofactor levels were applied. […] To obtain maximum glucuronidation activity, the microsomes were activated by preincubating the incubation mixture with 0.025 mg/ml alamethicin added from a 200 times concentrated stock solution in methanol, during 15 min on ice (Fisher et al. [2000]).
Kinetic constants for the glucuronidation of the p-substituted phenols were derived by fitting the data to the standard Michaelis–Menten equation; v=Vmax∗S/Km+[S] in which [S] represents the substrate concentration, V max the maximum velocity and K m the Michaelis–Menten constant for the formation of the glucuronide metabolites. Data analysis was accomplished using GraphPad Prism 5.0 software (GraphPad, San Diego, CA, USA). […] The in vivo K m value was assumed to be the same to the in vitro K m value.
Samples from the BeWo and Caco-2 transport experiments were centrifuged at 13,000 rpm at 5 °C for 15 min. Next 7.5 µl of the supernatant of each sample was analysed by UPLC (Waters Acquity). Samples from the glucuronidation assays were centrifuged at 15,000 rpm at 5 °C for 5 min. […] All samples, except those from transport studies with fluorescein, were analysed on a Waters BEH C18 1.7 µm column, 2.1 × 50 mm, with nanopure water (0.1% TFA) (A) and pure acetonitrile (B) applying a gradient elution. The start condition was 100:0 (A:B), changing to 90:10 from 1 to 2 min, then to 10:90 from 2 to 4 min (or from 2 to 3 min when analysing samples for p-heptyloxyphenylglucuronide), remaining at this ratio for 0.5 min and then rapidly declining to the start condition. The flow rate was 0.6 ml/min.

The conditions of data set [1]: cited from earlier work; for Concentration in EST culture medium over time: without cells, ref Strikwold et al. [2012].
Where [2] appears, read: P app ratio to antipyrine multiplied by antipyrine clearance 0.18 l/h, GD11.

The values below come from publication PMC5399052, “Integrating in vitro data and physiologically based kinetic (PBK) modelling to assess the in vivo potential developmental toxicity of a series of phenols” (Archives of Toxicology, 2016).

SMILES strings stand for the structures. Read-outs that look alike come from different tables or passages of the source.

As to `Oc1ccccc1` [Phenol], the “P app fold higher than antipyrine” value in the data set on BeWo cells (BeWo) was determined as 1.03 fold. In the data set on BeWo cells (setting [2]), the “CLPL, predicted rat transplacental clearance” value was 0.19 L/h. In addition, the Scaled catalytic efficiency in the data set on rat liver microsomes (scaled to rat liver) is given as 0.44 l/h/g liver. Besides, the “Scaled Vmax(app)” value in the data set with rat liver microsomes (scaled with microsomal protein yield 38 mg/g rat liver) was 205 µmol/h/g liver. Moreover, the “Loss in the EST” value in data set [1] (10-day EST, ref Strikwold et al. [2013]) was 39%. The “Concentration in EST culture medium over time” value (“Concentration … over time” below) in data set [1] is reported as “decreased in time”.

As to `Oc1ccc(F)cc1` [p-Fluorophenol, p-fluorophenol], the “CLPL, predicted rat transplacental clearance” value in the data set on BeWo cells (setting [2]) is 0.15 L/h. In the data set with rat liver microsomes (Sprague-Dawley, rat, pH 7.4), the “Catalytic efficiency (Vmax/Km)” value was 0.32 ml/min/mg protein and the Scaled catalytic efficiency came out at 0.74 l/h/g liver. In addition, the “Vmax(app) glucuronidation (± SD)” value in the data set on rat liver microsomes was 101 ± 1.6 nmol/min/mg microsomal protein. In addition, in the data set with rat liver microsomes (rat, pH 7.4), the “Scaled Vmax(app)” value is 231 µmol/h/g liver. Besides, the “Concentration … over time” value in data set [1] was “decreased in time”.

The Km is the concentration of substrate that gives half-maximal velocity. On to `CC(=O)c1ccc(O)cc1` [p-Methylketophenol, p-methylketophenol], for which the “CLPL, predicted rat transplacental clearance” value in the data set with BeWo cells is 0.12 L/h. Further, in the data set on rat liver microsomes, the “Catalytic efficiency (Vmax/Km)” value is 1.16 ml/min/mg protein, the Km came to 138 ± 17 µM, the “Scaled Vmax(app)” value turned out to be 365 µmol/h/g liver and the Scaled catalytic efficiency came to 2.65 l/h/g liver. In addition, in the data set on rat liver microsomes, the “Vmax(app) glucuronidation (± SD)” value is given as 160 ± 4.4 nmol/min/mg microsomal protein. In addition, the “Concentration … over time” value in data set [1] is reported as “stable”.
